Experimental findings from patent US20160264558A1, “FLUOROGENIC PROTECTING GROUP” (ISIS INNOVATION LIMITED, priority 2013, published 2016) are described below.

The structures appear in SMILES notation. pIC50: −log10 of the molar value.

One data set has as its target BRD4 (Homo sapiens, UniProt O60885). In words: AlphaScreen assay against BRD4. The format is binding.
Data set [1] has as its target T1, purified human cytochrome p450 reductase (Homo sapiens, UniProt P16435).
T1 construct: purchased Cypex
T1 sequence (P16435 1-677): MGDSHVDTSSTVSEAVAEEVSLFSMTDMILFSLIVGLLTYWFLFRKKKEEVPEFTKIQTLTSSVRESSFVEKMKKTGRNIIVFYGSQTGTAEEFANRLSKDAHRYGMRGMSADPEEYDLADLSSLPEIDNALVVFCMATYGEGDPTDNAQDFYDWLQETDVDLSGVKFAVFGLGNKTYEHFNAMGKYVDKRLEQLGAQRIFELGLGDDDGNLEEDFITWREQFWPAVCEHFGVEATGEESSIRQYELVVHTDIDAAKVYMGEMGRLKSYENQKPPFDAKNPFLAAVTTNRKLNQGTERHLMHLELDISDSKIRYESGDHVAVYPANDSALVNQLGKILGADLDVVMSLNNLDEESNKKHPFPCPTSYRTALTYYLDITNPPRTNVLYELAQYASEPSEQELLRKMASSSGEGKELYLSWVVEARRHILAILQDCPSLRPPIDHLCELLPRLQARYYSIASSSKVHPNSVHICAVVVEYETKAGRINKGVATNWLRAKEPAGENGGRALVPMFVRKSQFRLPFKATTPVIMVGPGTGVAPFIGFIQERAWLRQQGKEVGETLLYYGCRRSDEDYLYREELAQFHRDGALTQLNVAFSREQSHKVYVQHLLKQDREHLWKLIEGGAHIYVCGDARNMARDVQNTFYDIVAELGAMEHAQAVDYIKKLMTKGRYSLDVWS
In words: Purified reductase assay (hypoxic/normoxic incubation, HPLC). The format is in vitro ADME. To be noted: 250 nM. The method, then: The bioreductive compound 18 (Example 1) was incubated with purified human cytochrome p450 reductase in hypoxic and normoxic conditions.
Bactosomal human NADPH-CYP reductase (Cypex, 12.7 mg/mL, 13900 nmol/min/mL) was used in combination with an NADPH-regenerating system (BD Biosciences), and the assay was carried out according to the manufacturer's protocol (BD Biosciences application note 467) at a compound 18 concentration of 250 nM. For hypoxic conditions, vials were deoxygenated by bubbling nitrogen prior to P450 addition and then transferred into a Bactron II (Shell laboratories). Samples were taken at different time points and analyzed by HPLC.

The subject of data set [2] is RKO (colorectal) cancer cell lines. In words: Cell-based assay: incubation in RKO cells, HPLC of the lysate. The method, then:
Compound 21 was administered to cells in culture and incubated in (a) hypoxic and (b) normoxic conditions.
RKO (colorectal) cancer cell lines were cultured in DMEM medium containing 10% FBS, penicillin (100 U/mL) and streptomycin (100 μg/mL). RKO cell line was originally obtained from the ATCC and routinely mycoplasma tested and found to be negative. Experiments were carried out with cells at 75% confluence.
Hypoxia Treatments were carried out in a Bactron II (Shell laboratories), In vivo 400 (Ruskinn), or Heracell mixed gas incubator (Fisher Scientific) depending on the level of hypoxia required.
HPLC Analysis HPLC (Waters 2695 system) comprised an RPB column (100 mm×3.2 mm, 35° C.). […] Detection used a photodiode array spectrophotometer (Waters 2996), a mass spectrometer (Waters Micromass ZQ mass spectrometer), and a UV spectrometer (Waters 296 diode array detector) scanning from 210 nm to 400 nm with a resolution set at 3.6 nm. Injections of 10 μL were made.

The nature of data set [3]: Fluorimetry of compound A and its reduced counterpart B. It counts as physicochemical. To be noted: 50 μM in iPrOH, excitation wavelength 515 nm, (FIG. 6). The method, then: Compound A (Example 7) was synthesised in accordance with Sun et at (Chem. Commun., 2013, 49, 3890-3892). Fluorescence spectra of the compound, as well as its reduced counterpart compound B, was confirmed by fluorimetry.
50 μM solutions of A and B were prepared in iPrOH and fluorimetry carried out using a Perkin Elmer Luminescence Spectrometer LS 50 B with an excitation wavelength of 515 nm. Results are depicted in FIG. 6.

The target of data set [4] is T2, Cytochrome P450 reductase (Homo sapiens, UniProt P16435).
T2 sequence (P16435 1-677): T1 sequence (P16435 1-677)
In words: Cytochrome P450 reductase assay of compound A. To be noted: anaerobic conditions, over 8 h (FIG. 8). The format is in vitro ADME. The method, then:
Compound A was subject to a Cytochrome P450 reductase assay in accordance with the procedure of Cazares-Korner (CH-01 is a hypoxia-activated prodrug that sensitizes cells to hypoxia/reoxygenation through inhibition of Chk1 and Aurora A., ACS Chem. Biol. 2013 DOI:10.1021/cb4001537).
FIG. 8 records absorbance at 0, 2, 4 and 8 hours under hypoxic (FIG. 8a) and normoxic (FIG. 8b) conditions.

As to `Cc1noc(C)c1-c1cc(OCc2c([N+](=O)[O-])ccc3ncccc23)cc(C(O)c2ccccc2)c1` (stereo not drawn) [Compound 18, (3-(3,5-Dimethylisoxazol-4-yl)-5-((6-nitroquinolin-5-yl)methoxy)phenyl)(phenyl) methanol], the “decrease in potency vs compound 3” value at BRD4 (BRD4 AlphaScreen IC50, compound 18 vs compound 3) amounted to 2 fold. Also, the pIC50 – broadly, the negative decadic logarithm of the IC50, by convention in mol/L – on BRD4 (same AlphaScreen assay) was 6.13. Also, the “reduction/fragmentation by human CYP reductase” value was “undergoes reduction by human CYP, including fragmentation to release compound 3” in data set [1] (hypoxic conditions, HPLC (FIG. 2a)) and “no activation was observed” in data set [1] (normoxic conditions, HPLC (FIG. 2b)).

As to `CC(=O)Nc1ccc(OCc2c([N+](=O)[O-])ccc3ncccc23)cc1` [Compound 21, N-(4-((6-Nitroquinolin-5-yl)methoxy)phenyl)acetamide], the melting point (commonly the temperature of the solid-liquid transition) fell in the range of 204 to 206 °C. In data set [2] (hypoxia, HPLC (FIG. 3a)), the “UV absorbance of the compound's peak in the cell lysate” value is on record as “hypoxia-dependent decrease in UV absorbance”. In data set [2] (normoxia, over 24 h, HPLC (FIG. 3b)), the “UV absorbance of the compound's peak in the cell lysate” value is “continued to increase”.

`N#CC(C#N)=C1C=C(/C=C/c2ccc(N=[N+]=[N-])cc2)Oc2ccccc21` [Compound A, (E)-2-(2-(4-azidostyryl)-4H-chromen-4-ylidene)malononitrile]: the “difference in fluorescence emission between A and B” value in data set [3] is roughly 650 fold. Also, the “reductive conversion to compound B” value in data set [4] was “trace reductive conversion to compound B”.
